{"source": "patent US12636275B2", "about": "“Pharmaceutical use of ketoamide-based compound” (Shanghai Institute of Materia Medica, Chinese Academy of …, priority 2020, dated 2026)", "data": [{"molecular_target": "T1, 2019-nCoV 3CL protease (Severe acute respiratory syndrome coronavirus 2, UniProt P0DTD1)", "T1 construct": "against 3CL protease of 2019 novel coronavirus (2019-nCoV 3CL^pro)", "assay": "Inhibitory activity against 3CL protease of 2019 novel coronavirus (FRET)", "type": "biochemical", "conditions": "FRET, 37° C., substrate 20 μM", "procedure": "To determine the inhibitory activity of the compound against 3CL protease of 2019 novel coronavirus (2019-nCoV 3CL^pro): the enzyme level inhibitory activity of inhibitors against 3CL protease was determined by fluorescence resonance energy transfer (FRET) technology. In a 96-well plate, 27.5 μL of buffer (20 mM Tris, 100 mM NaCl, 1 mM EDTA, pH 7.4) was added to each well, 2.5 μL compounds ([…], respectively) and 5 μL […] (final concentration was 3 μM) were added at the same time. Incubated at 37° C. for 15 min. Then 15 μL fluorescent substrate diluted with buffer (final concentration was 20 μM) was added. The fluorescence parameters were determined by Ge n5 fluorescence spectrophotometer. The excitation wavelength and emission wavelength were 340 nm and 490 nm respectively, kept at 37° C., and the data were read after 10 min. A negative control was used, in which no compound was added to the control, and the rest was the same.", "units": {"IC50": "µM"}, "values": [{"smiles": "CC(C)C[C@H](NC(=O)c1cc2ccccc2[nH]1)C(=O)N[C@@H](C[C@@H]1CCNC1=O)C(=O)C(=O)NCc1ccccc1", "note": "[Example A90, N—((S)-1-(((S)-4-(benzylamino)-3,4-dione-1-((S)-2-oxopyrrolidin-3-yl)but-2-yl)amino)-4-methyl-1-oxopentan-2-yl)-1H-indole-2-carboxamide]", "IC50": 25.2}, {"smiles": "O=C(NC1CCCCC1)C(=O)[C@H](C[C@@H]1CCCNC1=O)NC(=O)[C@H](CC1CCCCC1)NC(=O)c1cc2cccc(Br)c2o1", "note": "[Example A257, N—((S)-1-(((S)-4-(cyclohexylamino)-3,4-dione-1-((S)-2-oxopiperidin-3-yl)but-2-yl)amino)-3-cyclohexyl-1-oxopropan-2-yl)-6-bromo-benzofuran-2-carboxamide]", "IC50": 5.2}, {"smiles": "CC(C)NC(=O)CC[C@H](NC(=O)[C@H](CC1CCCCC1)NC(=O)c1cnc2ccccc2n1)C(=O)C(=O)NCc1ccccc1", "note": "[Example A236, N—((S)-1-(((S)-4-(benzyl)-3,4-dione-1-(isopropylamino)-2-yl)amino)-3-(cyclohexyl)-1-oxopropan-2-yl)-quinoxaline-2-carboxamide]", "IC50": 4.5}, {"smiles": "O=C(NCc1ccccc1)C(=O)[C@H](C[C@@H]1CCNC1=O)NC(=O)[C@H](Cc1ccccc1)NC(=O)c1cn2cc(Br)ccc2n1", "note": "[Example A156]", "IC50": 4.7}, {"smiles": "Cn1c(C(=O)N[C@@H](CC2CCCCC2)C(=O)N[C@@H](C[C@@H]2CCCNC2=O)C(=O)C(=O)NC2CCCCC2)cc2ccccc21", "note": "[Example A29, N—((S)-3-cyclohexyl-1-(((S)-4-(cyclohexylamino)-3,4-dione-1-((S)-2-oxopiperidin-3-yl)but-2-yl)amino)-3-cyclohexyl-1-oxopropan-2-yl)-1-methyl-1H-indole-2-carboxamide]", "IC50": 9.8}, {"smiles": "CC(C)(C)NC(=O)C(=O)[C@H](C[C@@H]1CCCNC1=O)NC(=O)[C@H](CC1CCCCC1)NC(=O)c1cc2ccccc2[nH]1", "note": "[Example A6, N—((S)-1-(((S)-4-(tert-butylamino)-3,4-dione-1-((S)-2-oxopiperidin-3-yl)but-2-yl)amino)-3-cyclohexyl-1-oxopropan-2-yl)-1H-indole-2-carboxamide]", "IC50": 25.3}, {"smiles": "CC(C)NC(=O)CC[C@H](NC(=O)[C@H](Cc1ccccc1)NC(=O)c1cc2ccccc2[nH]1)C(=O)C(=O)NCC1CCCCC1", "note": "[Example A234]", "IC50": 10.3}, {"smiles": "O=C(NCc1ccccc1)C(=O)[C@H](C[C@@H]1CCNC1=O)NC(=O)[C@H](CC1CCCCC1)NC(=O)c1ccc2ccccc2n1", "note": "[Example A42, N—((S)-1-(((S)-4-(benzylamino)-3,4-dione-1-((S)-2-oxopyrrolidin-3-yl)but-2-yl)amino)-3-cyclohexyl-1-oxopropan-2-yl)-quinoline-2-carboxamide]", "IC50": 3}, {"smiles": "CC(C)(C)NC(=O)C(=O)[C@H](C[C@@H]1CCNC1=O)NC(=O)[C@H](Cc1ccccc1)NC(=O)c1cc2ccccc2o1", "note": "[Example A291, N—((S)-1-(((S)-4-(tert-butylamino)-3,4-dione-1-((S)-2-oxopyrrolidin-3-yl)but-2-yl)amino)-3-phenyl-1-oxopropan-2-yl)-benzofuran-2-carboxamide]", "IC50": 15.2}, {"smiles": "C[C@@H](NC(=O)C(=O)[C@H](C[C@@H]1CCNC1=O)NC(=O)[C@H](CC1CCCCC1)NC(=O)c1ccc2ccccc2n1)c1ccccc1", "note": "[Example A293]", "IC50": 26.4}, {"smiles": "O=C(NC1CCCCC1)C(=O)[C@H](C[C@@H]1CCNC1=O)NC(=O)[C@H](Cc1ccccc1)NC(=O)c1cc2ccccc2o1", "note": "[Example A56]", "IC50": 24.1}, {"smiles": "O=C(CC[C@H](NC(=O)[C@H](Cc1ccccc1)NC(=O)c1cnc2ccccc2n1)C(=O)C(=O)NCc1ccccc1)NC1CCCCC1", "note": "[Example A239, N—((S)-1-(((S)-4-(benzyl)-3,4-dione-1-(cyclohexylamino)-2-yl)amino)-3-(phenyl)-1-oxopropan-2-yl)-quinoxaline-2-carboxamide]", "IC50": 3.8}, {"smiles": "COc1cc(OC)c2cc(C(=O)N[C@@H](Cc3ccccc3)C(=O)N[C@@H](C[C@@H]3CCNC3=O)C(=O)C(=O)NC(C)(C)C)[nH]c2c1", "note": "[Example A221, N—((S)-1-(((S)-4-(tert-butylamino)-3,4-dione-1-((S)-2-oxopyrrolidin-3-yl)but-2-yl)amino)-1-oxo-3-phenylpropan-2-yl)-4,6-dimethoxy-1H-indole-2-carboxamide]", "IC50": 5.8}, {"smiles": "Cc1ccc(CN(C)C(=O)C(=O)[C@H](C[C@@H]2CCCNC2=O)NC(=O)[C@H](CC2CCCCC2)NC(=O)c2cc3ccccc3o2)cc1", "note": "[Example A272, N—((S)-1-(((S)-4-(4-methylbenzylmethylamino)-3,4-dione-1-((S)-2-oxopiperidin-3-yl)but-2-yl)amino)-3-cyclohexyl-1-oxopropan-2-yl)-benzofuran-2-carboxamide]", "IC50": 4.8}, {"smiles": "O=C(NC1CCCCC1)C(=O)[C@H](C[C@@H]1CCCNC1=O)NC(=O)[C@H](Cc1ccccc1)NC(=O)c1cc2ccccc2o1", "note": "[Example A59]", "IC50": 23.5}, {"smiles": "O=C(NCc1ccccc1)C(=O)[C@H](C[C@@H]1CCNC1=O)NC(=O)[C@H](CC1CCCCC1)NC(=O)c1cc2ccccc2s1", "note": "[Example A17, N—((S)-1-(((S)-4-(benzylamino)-3,4-dione-1-((S)-2-oxopyrrolidin-3-yl)but-2-yl)amino)-3-cyclohexyl-1-oxopropan-2-yl)-benzothiophene-2-carboxamide]", "IC50": 12.5}, {"smiles": "O=C(NCc1ccccc1)C(=O)[C@H](C[C@@H]1CCCNC1=O)NC(=O)[C@H](CC1CCCCC1)NC(=O)c1cccnn1", "note": "[Example A268, N—((S)-1-(((S)-4-(benzylamino)-3,4-dione-1-((S)-2-oxopiperidin-3-yl)but-2-yl)amino)-3-cyclohexyl-1-oxopropan-2-yl)-pyridazine-2-carboxamide]", "IC50": 5.6}, {"smiles": "O=C(NCc1ccccc1)C(=O)[C@H](C[C@@H]1CCCNC1=O)NC(=O)[C@H](CC1CCCCC1)NC(=O)c1cc2c(F)c(F)ccc2[nH]1", "note": "[Example A269, N—((S)-1-(((S)-4-(benzylamino)-3,4-dione-1-((S)-2-oxopiperidin-3-yl)but-2-yl)amino)-3-cyclohexyl-1-oxopropan-2-yl)-4,5-indole-2-carboxamide]", "IC50": 8.8}, {"smiles": "Cn1c(C(=O)N[C@@H](CC2CCCCC2)C(=O)N[C@@H](C[C@@H]2CCCNC2=O)C(=O)C(=O)NC(C)(C)C)cc2ccccc21", "note": "[Example A28, N—((S)-1-(((S)-4-(tert-butylamino)-3,4-dione-1-((S)-2-oxopiperidin-3-yl)but-2-yl)amino)-3-cyclohexyl-1-oxopropan-2-yl)-1-methyl-1H-indole-2-carboxamide]", "IC50": 15.2}, {"smiles": "O=C(NCc1ccccc1)C(=O)[C@H](C[C@@H]1CCNC1=O)NC(=O)[C@H](Cc1cccc(F)c1)NC(=O)c1ccc2ccccc2n1", "note": "[Example A305, N—((S)-1-(((S)-4-(benzylamino)-3,4-dione-1-((S)-2-oxopyrrolidin-3-yl)but-2-yl)amino)-3-(3-fluorophenyl)-1-oxopropan-2-yl)-quinoline-2-carboxamide]", "IC50": 8.5}, {"smiles": "CC(C)NC(=O)CC[C@H](NC(=O)[C@H](Cc1ccccc1)NC(=O)c1cnc2ccccc2n1)C(=O)C(=O)NCc1ccccc1", "note": "[Example A238]", "IC50": 4.8}, {"smiles": "CC(C)C[C@H](NC(=O)c1cc2c(Cl)cc(Cl)cc2[nH]1)C(=O)N[C@@H](C[C@@H]1CCNC1=O)C(=O)C(=O)NC(C)(C)C", "note": "[Example A115]", "IC50": 6.5}, {"smiles": "O=C(NCc1ccc(-c2ccccc2)cc1)C(=O)[C@H](C[C@@H]1CCCNC1=O)NC(=O)[C@H](CC1CCCCC1)NC(=O)c1cc2ccccc2o1", "note": "[Example A275]", "IC50": 5.8}, {"smiles": "O=C(NCc1ccccc1)C(=O)[C@H](C[C@@H]1CCNC1=O)NC(=O)[C@H](Cc1ccc(F)cc1)NC(=O)c1ccc2ccccc2n1", "note": "[Example A306, N—((S)-1-(((S)-4-(benzylamino)-3,4-dione-1-((S)-2-oxopyrrolidin-3-yl)but-2-yl)amino)-3-(4-fluorophenyl)-1-oxopropan-2-yl)-quinoline-2-carboxamide]", "IC50": 6.7}, {"smiles": "CCOc1ccc2oc(C(=O)N[C@@H](CC3CCCCC3)C(=O)N[C@@H](C[C@@H]3CCCNC3=O)C(=O)C(=O)NCc3ccccc3)cc2c1", "note": "[Example A259, N—((S)-1-(((S)-4-(benzylamino)-3,4-dione-1-((S)-2-oxopiperidin-3-yl)but-2-yl)amino)-3-cyclohexyl-1-oxopropan-2-yl)-5-ethoxyl-benzofuran-2-carboxamide]", "IC50": 9.5}, {"smiles": "O=C(NCc1cc(F)cc(F)c1)C(=O)[C@H](C[C@@H]1CCCNC1=O)NC(=O)[C@H](CC1CCCCC1)NC(=O)c1cc2ccccc2o1", "note": "[Example A270, N—((S)-1-(((S)-4-(3,5-difluorobenzylamino)-3,4-dione-1-((S)-2-oxopiperidin-3-yl)but-2-yl)amino)-3-cyclohexyl-1-oxopropan-2-yl)-benzofuran-2-carboxamide]", "IC50": 7.6}]}, {"system": "2019 novel coronavirus (2019-nCov)", "assay": "Inhibitory activity on replication of 2019 novel coronavirus (cytopathic effect, MTS, RD cells)", "type": "cell-based", "conditions": "CQ as positive control, different concentration gradients", "values": [{"smiles": "O=C(NCc1ccccc1)C(=O)[C@H](C[C@@H]1CCNC1=O)NC(=O)[C@H](CC1CCCCC1)NC(=O)c1ccc2ccccc2n1", "note": "[Example A42, N—((S)-1-(((S)-4-(benzylamino)-3,4-dione-1-((S)-2-oxopyrrolidin-3-yl)but-2-yl)amino)-3-cyclohexyl-1-oxopropan-2-yl)-quinoline-2-carboxamide]", "virus inhibitory activity (in words)": "excellent virus inhibitory activity"}]}, {"system": "2019 novel coronavirus (2019-nCov)", "assay": "Inhibitory activity on replication of 2019 novel coronavirus (cytopathic effect, MTS, RD cells)", "type": "cell-based", "conditions": "CQ as positive control, different concentration gradients; listed as 4001", "values": [{"smiles": "O=C(NCc1ccccc1)C(=O)[C@H](C[C@@H]1CCNC1=O)NC(=O)[C@H](CC1CCCCC1)NC(=O)c1ccc2ccccc2n1", "note": "[Example A42, N—((S)-1-(((S)-4-(benzylamino)-3,4-dione-1-((S)-2-oxopyrrolidin-3-yl)but-2-yl)amino)-3-cyclohexyl-1-oxopropan-2-yl)-quinoline-2-carboxamide]", "virus inhibitory activity (in words)": "better than that of positive control CQ"}]}, {"system": "2019 novel coronavirus (2019-nCov)", "assay": "Inhibitory activity on replication of 2019 novel coronavirus (cytopathic effect, MTS, RD cells)", "type": "cell-based", "conditions": "Severe acute respiratory syndrome coronavirus 2, RD, read-out: EC50, inhibition of 2019-nCoV virus replication", "units": {"EC50": "µM"}, "values": [{"smiles": "O=C(NCc1ccccc1)C(=O)[C@H](C[C@@H]1CCNC1=O)NC(=O)[C@H](CC1CCCCC1)NC(=O)c1ccc2ccccc2n1", "note": "[Example A42, N—((S)-1-(((S)-4-(benzylamino)-3,4-dione-1-((S)-2-oxopyrrolidin-3-yl)but-2-yl)amino)-3-cyclohexyl-1-oxopropan-2-yl)-quinoline-2-carboxamide]", "EC50": 0.581}]}]}
